Reference: ChEMBL document CHEMBL1201862, “PubChem BioAssay data set” (2004)
Calls of active or inactive are those of the source.

Assays:
[1] = biological target: Peroxisome proliferator-activated receptor gamma/Nuclear receptor coactivator 2 (Homo sapiens, UniProt P37231); assay: TR-FRET dose response biochemical High Throughput Screening assay for agonists of the steroid receptor coactivator 2 (SRC-2) recruitment by the peroxisome proliferator-activated receptor gamma (PPAR gamma): non-selective agonists. [Related pubchem assays: 1297, 1032 ]; assay type: functional
[2] = biological target: Photoreceptor-specific nuclear receptor (Homo sapiens, UniProt Q9Y5X4); assay type: functional;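 also: potency for compounds that break the NR2E3 corepressor complex and count as activators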
[3] = biological target: Peroxisome proliferator-activated receptor gamma/Nuclear receptor corepressor 2 (Homo sapiens, UniProt P37231+Q9Y618); assay type: functional
[4] = biological target: Peroxisome proliferator-activated receptor gamma/Nuclear receptor coactivator 3 (Homo sapiens, UniProt P37231); assay: TR-FRET dose response biochemical High Throughput Screening assay for agonists of the steroid receptor coactivator 3 (SRC-3) recruitment by the peroxisome proliferator-activated receptor gamma (PPAR gamma): non-selective agonists. [Related pubchem assays: 1301 (Confirmation screen.), 1048 (Primary screen.)]; assay type: functional
[5] = biological target: Peroxisome proliferator-activated receptor gamma/Nuclear receptor coactivator 1 (Homo sapiens, UniProt P37231); assay: TR-FRET dose response biochemical High Throughput Screening assay for agonists of the steroid receptor coactivator 1 (SRC-1) recruitment by the peroxisome proliferator-activated receptor gamma (PPAR gamma): non-selective agonists. [Related pubchem assays (depositor defined):AID1300, AID1808, AID504735, AID631]; assay type: protein assay
[6] = biological target: Neuropeptides B/W receptor type 1 (Homo sapiens, UniProt P48145); assay: Fluorescence-based dose response cell-based high throughput screening assay to identify antagonists of the G-protein coupled receptor 7 (GPR7). [Related pubchem assays: 1952 (Screening assay (GPR7 antagonists).), 1880 (Summary AID.)]; assay type: functional
[7] = biological target: Melanin-concentrating hormone receptor 1 (Homo sapiens, UniProt Q99705); assay: Fluorescence-based counterscreen for antagonists of the G-protein coupled receptor 7 (GPR7): cell-based high throughput dose response assay to identify antagonists of the melanin-concentrating hormone receptor 1 (MCHR1).; assay type: functional
[8] = biological target: T1, Rac GTPase-activating protein 1 (Homo sapiens, UniProt Q9H0H5); assay: blockers of MgcRacGAP-driven Rac1 GTP hydrolysis – biochemical, ADP Hunter fluorescence, primary and confirmatory, confirmation (AID 624330); assay type: functional
T1 sequence (Q9H0H5 whole entry): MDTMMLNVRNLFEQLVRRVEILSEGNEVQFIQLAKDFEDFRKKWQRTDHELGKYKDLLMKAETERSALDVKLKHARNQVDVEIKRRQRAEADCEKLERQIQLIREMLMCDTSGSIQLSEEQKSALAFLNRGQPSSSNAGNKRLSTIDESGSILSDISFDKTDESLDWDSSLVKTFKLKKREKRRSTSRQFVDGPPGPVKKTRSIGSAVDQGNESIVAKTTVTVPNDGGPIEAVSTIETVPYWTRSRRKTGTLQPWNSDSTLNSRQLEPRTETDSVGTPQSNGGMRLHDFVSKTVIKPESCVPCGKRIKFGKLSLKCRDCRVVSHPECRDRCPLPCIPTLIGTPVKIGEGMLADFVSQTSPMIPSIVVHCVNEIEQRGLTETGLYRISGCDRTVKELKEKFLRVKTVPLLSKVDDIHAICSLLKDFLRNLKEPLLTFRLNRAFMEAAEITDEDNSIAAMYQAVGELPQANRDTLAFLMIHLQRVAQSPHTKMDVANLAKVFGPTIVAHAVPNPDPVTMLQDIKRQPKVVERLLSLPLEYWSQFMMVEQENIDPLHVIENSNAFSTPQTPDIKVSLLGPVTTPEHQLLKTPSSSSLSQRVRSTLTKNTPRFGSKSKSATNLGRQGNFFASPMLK

[9] = biological target: Neuropeptide Y receptor type 1 (Homo sapiens, UniProt P25929); assay: Fluorescence-based counterscreen for agonists of NPY-Y2: cell-based high-throughput dose response assay for agonists of NPY-Y1.; assay type: functional
[10] = biological target: Neuropeptide Y receptor type 2 (Homo sapiens, UniProt P49146); assay: Fluorescence-based cell-based high-throughput dose response assay for agonists of NPY-Y2. [Related pubchem assays: 1703 (Screening assay (CNGC inhibitors).), 1359 (Screening assay (NPY-Y2 potentiators or agonists).), 1304 (Screening assay (NPY-Y1 potentiators or agonists).), 1710 (Screening assay (NPY-Y2 agonists).), 1791 (Summary AID.)]; assay type: functional
HEK293 [11] = assay: Fluorescence-based counterscreen for potentiators or agonists of NPY-Y2: cell-based high-throughput dose response assay to identify inhibitors of cyclic nucleotide gated ion channel (CNGC) activity. In this assay, the parental HEK293 cell line transfected with a cyclic-nucleotide gated ion channel (CNGC)-based cAMP sensor is used to measure inhibition of isoproterenol-induced CNGC activity by test compound.; assay type: functional; conditions: Homo sapiens
Streptococcus = assay: GAS UMAA2166 growth inhibition – luminescence, BacTiterGlo, counter-screen for streptokinase expression inhibitor project, dose response (AID 1915); assay type: functional, organism-based;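 also: potency for reduction of bacterial viability or growth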
HEK293 [12] = assay: EBV LMP1 TES2 canonical NF-kB signalling blockers – cell-based, HEK293, luciferase, cherry-pick, dose response (AID 588343); assay type: functional; conditions: Homo sapiens
[13] = biological target: Serine/threonine-protein phosphatase PP1-alpha catalytic subunit (Homo sapiens, UniProt P62136); assay: inhibition of protein phosphatase 1 activity – biochemical, fluorescence, dose response (AID 2403);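 also: phosphatase turnover of OMFP into fluorescent 3-O-methylfluorescein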
INS1 = assay: INS-1E survival protection against cytokine death – cell-based, luminescence, retest, dose response (AID 449756); assay type: functional; conditions: Rattus norvegicus;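 also: cell death triggered by IL-1 beta plus TNF-alpha plus IFN-gamma mixture; protective hits raise ATP signal compared with cytokine alone wells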
[14] = decrease of insulin promoter-GFP reporter – imaging, high-content screening, mouse beta cells (AID 1628); assay type: functional; conditions: MIN6
[15] = test system: Streptococcus sp. 'group A'; assay: Streptococcus pyogenes SK(-)GAS viability under kanamycin – luminescence, BacTiterGlo, confirmation, counter-screen for streptokinase expression inhibitor project, dose response (AID 1900); assay type: functional, organism-based
BJ [16] = assay: BJ-TERT-LT-ST fibroblast viability loss – cell-based, RAS-independent, luminescence, dose response (AID 1935); assay type: functional; conditions: Homo sapiens;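 also: BJ fibroblasts immortalized with TERT plus LT and ST oncogenes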
[17] = DRD fibroblast viability loss – cell-based, non-viral oncogenic, luminescence, dose response (AID 1934); assay type: functional; conditions: Homo sapiens
BJ [18] = assay: BJ-TERT fibroblast viability loss – cell-based, RAS-independent, luminescence, dose response (AID 1933); assay type: functional; conditions: Homo sapiens
[19] = Luminescent dose response cell-based high throughput screening assay for inhibitors of the Janus kinase 2 mutant JAK2V617F. [Related pubchem assays: 1446 (Primary screen.), 1521 (Confirmation assay.), 1486 (Counter screen.)]; assay type: functional
BJ [20] = assay: cells; assay type: functional, cell-based; conditions: Homo sapiens
[21] = biological target: T2, Serine/threonine-protein phosphatase (Homo sapiens, UniProt Q9BPW0); assay: Counterscreen for inhibitors of PP1: fluorescence-based biochemical high throughput dose response assay to identify inhibitors of Protein Phosphatase 5 (PP5). [Related pubchem assays: 2034 (Summary (PP5 inhibitors)), 1987 (PP5 inhibitors in singlate), 2235 (PP1 inhibitors in singlate)]
T2 sequence (Q9BPW0 whole entry): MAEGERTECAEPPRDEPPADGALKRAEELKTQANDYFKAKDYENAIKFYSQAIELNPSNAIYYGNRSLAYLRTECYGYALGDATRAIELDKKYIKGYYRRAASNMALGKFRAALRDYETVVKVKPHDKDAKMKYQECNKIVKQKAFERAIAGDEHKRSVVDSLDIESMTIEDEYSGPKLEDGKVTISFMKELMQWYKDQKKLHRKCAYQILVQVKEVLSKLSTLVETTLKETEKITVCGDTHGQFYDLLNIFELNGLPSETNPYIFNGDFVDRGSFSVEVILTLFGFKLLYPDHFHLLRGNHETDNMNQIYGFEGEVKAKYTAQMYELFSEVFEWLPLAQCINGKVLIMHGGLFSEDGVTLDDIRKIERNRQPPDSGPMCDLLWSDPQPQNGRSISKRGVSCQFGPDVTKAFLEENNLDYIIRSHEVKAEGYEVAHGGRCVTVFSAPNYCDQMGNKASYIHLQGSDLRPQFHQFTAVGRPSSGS

[22] = bead-based luminescence quenchers, dual-tagged ARNT – biochemical, AlphaScreen, cherry-pick, artefact control for ARNT-TACC3 interaction inhibitor project, dose response (AID 651705); assay type: functional;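 also: AlphaScreen bead proximity signal that flags compounds interfering with the detection technology; potency reflects signal decrease which marks the compound as an assay artifact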
[23] = MIN6 cell viability loss – mouse insulinoma, cytotoxicity control, dose response (AID 2122); assay type: functional;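 also: confirmatory high-throughput counterscreen run to flag cytotoxic compounds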
[24] = A cytotoxicity screen of small molecule inhibitors of the PhoP region in Salmonella typhi identified in the primary screen. [Related pubchem assays: 1850, 1864, 1985 ]; assay type: functional
[25] = biological target: T3, Alkaline phosphatase, tissue-nonspecific isozyme (Homo sapiens, UniProt P05186)
T3 sequence (P05186 whole entry): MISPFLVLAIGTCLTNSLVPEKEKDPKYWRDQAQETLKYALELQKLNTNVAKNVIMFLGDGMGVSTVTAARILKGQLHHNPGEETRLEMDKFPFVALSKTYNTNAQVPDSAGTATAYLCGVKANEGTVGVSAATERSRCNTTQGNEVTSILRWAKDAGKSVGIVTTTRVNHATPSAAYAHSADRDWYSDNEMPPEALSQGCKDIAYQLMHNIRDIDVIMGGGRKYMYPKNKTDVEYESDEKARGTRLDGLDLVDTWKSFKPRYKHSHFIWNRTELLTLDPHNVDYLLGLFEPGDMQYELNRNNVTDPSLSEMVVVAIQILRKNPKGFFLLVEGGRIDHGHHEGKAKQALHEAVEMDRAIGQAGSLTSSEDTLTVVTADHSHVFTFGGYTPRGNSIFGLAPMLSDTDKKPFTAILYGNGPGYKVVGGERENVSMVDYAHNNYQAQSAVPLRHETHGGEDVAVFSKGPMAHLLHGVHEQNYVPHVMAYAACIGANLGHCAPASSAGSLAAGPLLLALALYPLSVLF

Wee1-like protein kinase = Wee1-like protein kinase (Homo sapiens, UniProt P30291); assay: Dose Response Cell-based Assay for Inhibitors of Wee1 Degradation. [Related pubchem assays: 1410, 1321 ]; assay type: functional
Streptokinase A = biological target: T4, Streptokinase A (Streptococcus pyogenes serotype M1, UniProt P10520); assay: viability-normalized secreted streptokinase activity reduction – plasminogen activation absorbance, OD405, dose response (AID 1914); assay type: functional, Streptococcus pyogenes M1 GAS;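 also: secreted streptokinase activity via plasminogen activation per viability signal from cell pellet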
T4 sequence (P10520 whole entry): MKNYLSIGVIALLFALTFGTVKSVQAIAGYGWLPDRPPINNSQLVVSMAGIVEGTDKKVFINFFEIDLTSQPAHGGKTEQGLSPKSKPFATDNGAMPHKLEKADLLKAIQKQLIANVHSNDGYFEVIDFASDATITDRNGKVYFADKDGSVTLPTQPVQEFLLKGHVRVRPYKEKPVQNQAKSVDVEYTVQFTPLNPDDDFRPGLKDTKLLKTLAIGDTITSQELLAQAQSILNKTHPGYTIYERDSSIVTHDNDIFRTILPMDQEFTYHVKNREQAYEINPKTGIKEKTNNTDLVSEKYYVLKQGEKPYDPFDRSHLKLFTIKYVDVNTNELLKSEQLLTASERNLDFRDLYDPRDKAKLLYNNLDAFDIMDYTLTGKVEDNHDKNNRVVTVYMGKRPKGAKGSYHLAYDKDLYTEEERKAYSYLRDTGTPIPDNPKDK

[26] = biological target: G2/mitotic-specific cyclin-B1 (Homo sapiens, UniProt P14635); assay: Counterscreen assay for inhibitors of Wee1 degradation: dose response cell-based assay to identify inhibitors of cyclin B degradation. [Related pubchem assays: 1410, 1321 ]; assay type: functional
Cytochrome P450 2D6 = Cytochrome P450 2D6 (Homo sapiens, UniProt P10635); assay: qHTS Assay for Inhibitors and Substrates of Cytochrome P450 2D6. [Related pubchem assays: 410 ]; assay type: ADME; conditions: read-out: Potency

Chain of G2/mitotic-specific cyclin-B1 (P14635 whole entry): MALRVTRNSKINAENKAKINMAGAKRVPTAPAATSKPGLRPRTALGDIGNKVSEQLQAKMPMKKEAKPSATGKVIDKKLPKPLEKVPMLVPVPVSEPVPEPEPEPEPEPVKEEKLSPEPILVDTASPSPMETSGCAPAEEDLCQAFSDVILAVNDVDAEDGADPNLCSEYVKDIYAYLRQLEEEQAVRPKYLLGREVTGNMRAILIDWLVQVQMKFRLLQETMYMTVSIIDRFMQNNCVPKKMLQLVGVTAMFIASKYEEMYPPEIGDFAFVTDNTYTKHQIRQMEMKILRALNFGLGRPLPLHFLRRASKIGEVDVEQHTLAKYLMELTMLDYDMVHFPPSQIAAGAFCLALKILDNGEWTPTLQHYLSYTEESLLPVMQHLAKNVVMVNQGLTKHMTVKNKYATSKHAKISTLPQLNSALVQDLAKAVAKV
Chain of Neuropeptide Y receptor type 1 (P25929 whole entry): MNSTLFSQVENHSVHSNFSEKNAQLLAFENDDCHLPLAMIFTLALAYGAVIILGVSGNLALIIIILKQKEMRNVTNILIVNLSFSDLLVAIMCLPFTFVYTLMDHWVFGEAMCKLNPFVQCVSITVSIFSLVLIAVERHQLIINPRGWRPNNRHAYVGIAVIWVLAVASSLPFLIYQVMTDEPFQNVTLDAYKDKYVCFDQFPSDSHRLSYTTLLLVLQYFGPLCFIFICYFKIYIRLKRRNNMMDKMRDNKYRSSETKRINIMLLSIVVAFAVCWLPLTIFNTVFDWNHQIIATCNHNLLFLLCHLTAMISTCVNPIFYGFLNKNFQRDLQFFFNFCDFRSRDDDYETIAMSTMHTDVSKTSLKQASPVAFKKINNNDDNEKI
Chain of Serine/threonine-protein phosphatase PP1-alpha catalytic subunit (P62136 whole entry): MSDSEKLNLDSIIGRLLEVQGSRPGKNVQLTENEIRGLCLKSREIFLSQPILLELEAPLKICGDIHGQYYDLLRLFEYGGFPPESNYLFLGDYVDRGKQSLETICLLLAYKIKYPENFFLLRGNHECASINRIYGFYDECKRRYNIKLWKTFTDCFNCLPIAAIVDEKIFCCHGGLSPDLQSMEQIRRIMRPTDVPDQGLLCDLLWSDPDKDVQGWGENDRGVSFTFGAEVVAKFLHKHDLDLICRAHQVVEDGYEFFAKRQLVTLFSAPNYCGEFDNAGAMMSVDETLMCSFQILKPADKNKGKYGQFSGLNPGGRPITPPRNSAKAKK
Chain of Photoreceptor-specific nuclear receptor (Q9Y5X4 whole entry): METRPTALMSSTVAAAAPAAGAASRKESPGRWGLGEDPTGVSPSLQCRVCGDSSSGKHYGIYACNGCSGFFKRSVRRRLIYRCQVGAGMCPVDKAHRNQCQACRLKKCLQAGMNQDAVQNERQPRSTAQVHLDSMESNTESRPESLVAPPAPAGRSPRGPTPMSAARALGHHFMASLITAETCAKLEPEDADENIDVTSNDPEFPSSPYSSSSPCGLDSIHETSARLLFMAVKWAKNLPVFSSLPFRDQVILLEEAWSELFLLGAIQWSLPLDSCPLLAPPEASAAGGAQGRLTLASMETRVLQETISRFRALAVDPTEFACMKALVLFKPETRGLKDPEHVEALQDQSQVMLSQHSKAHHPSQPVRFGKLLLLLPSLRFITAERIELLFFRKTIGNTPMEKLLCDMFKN
Chain of Melanin-concentrating hormone receptor 1 (Q99705 whole entry): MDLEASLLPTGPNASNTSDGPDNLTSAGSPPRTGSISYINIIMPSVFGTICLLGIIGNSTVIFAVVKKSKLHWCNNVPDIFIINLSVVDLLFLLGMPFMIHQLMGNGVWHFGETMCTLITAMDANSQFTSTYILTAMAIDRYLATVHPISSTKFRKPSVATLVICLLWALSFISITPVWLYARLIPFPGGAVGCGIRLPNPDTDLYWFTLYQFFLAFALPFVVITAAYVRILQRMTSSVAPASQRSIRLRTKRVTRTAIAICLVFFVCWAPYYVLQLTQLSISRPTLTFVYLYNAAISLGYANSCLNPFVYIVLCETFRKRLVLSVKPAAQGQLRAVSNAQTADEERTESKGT
Chain of Wee1-like protein kinase (P30291 whole entry): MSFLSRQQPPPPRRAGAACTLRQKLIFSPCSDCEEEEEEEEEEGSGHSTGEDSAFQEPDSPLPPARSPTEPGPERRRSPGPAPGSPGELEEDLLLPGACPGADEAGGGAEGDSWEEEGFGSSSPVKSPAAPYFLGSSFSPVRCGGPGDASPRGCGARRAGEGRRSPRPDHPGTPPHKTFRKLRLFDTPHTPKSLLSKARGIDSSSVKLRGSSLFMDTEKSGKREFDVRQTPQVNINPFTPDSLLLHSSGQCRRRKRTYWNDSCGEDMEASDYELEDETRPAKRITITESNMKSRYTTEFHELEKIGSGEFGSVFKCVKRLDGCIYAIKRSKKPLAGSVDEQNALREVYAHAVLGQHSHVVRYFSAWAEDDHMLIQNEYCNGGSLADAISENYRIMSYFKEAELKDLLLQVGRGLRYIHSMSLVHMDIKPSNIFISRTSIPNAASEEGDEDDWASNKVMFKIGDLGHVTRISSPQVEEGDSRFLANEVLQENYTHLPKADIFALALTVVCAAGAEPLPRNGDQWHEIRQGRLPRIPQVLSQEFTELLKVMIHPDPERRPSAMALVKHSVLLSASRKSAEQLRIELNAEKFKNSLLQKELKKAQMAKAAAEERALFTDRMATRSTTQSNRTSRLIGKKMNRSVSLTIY
Chain of Peroxisome proliferator-activated receptor gamma/Nuclear receptor coactivator 2 (P37231 whole entry): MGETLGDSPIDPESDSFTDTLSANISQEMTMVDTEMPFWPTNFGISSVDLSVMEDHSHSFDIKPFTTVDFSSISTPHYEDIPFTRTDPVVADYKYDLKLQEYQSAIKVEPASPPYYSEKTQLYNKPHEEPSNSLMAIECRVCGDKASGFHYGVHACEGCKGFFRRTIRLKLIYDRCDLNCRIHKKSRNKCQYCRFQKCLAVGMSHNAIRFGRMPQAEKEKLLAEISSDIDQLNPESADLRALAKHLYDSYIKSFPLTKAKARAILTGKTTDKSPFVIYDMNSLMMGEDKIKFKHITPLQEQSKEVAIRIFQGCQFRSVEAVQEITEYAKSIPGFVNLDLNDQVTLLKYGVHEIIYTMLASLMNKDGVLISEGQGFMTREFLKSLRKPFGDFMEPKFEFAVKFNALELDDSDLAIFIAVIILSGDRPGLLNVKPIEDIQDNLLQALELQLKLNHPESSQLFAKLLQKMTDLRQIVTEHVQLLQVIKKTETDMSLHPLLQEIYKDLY
Chain of Peroxisome proliferator-activated receptor gamma/Nuclear receptor coactivator 2 (Q15596 whole entry, further chain): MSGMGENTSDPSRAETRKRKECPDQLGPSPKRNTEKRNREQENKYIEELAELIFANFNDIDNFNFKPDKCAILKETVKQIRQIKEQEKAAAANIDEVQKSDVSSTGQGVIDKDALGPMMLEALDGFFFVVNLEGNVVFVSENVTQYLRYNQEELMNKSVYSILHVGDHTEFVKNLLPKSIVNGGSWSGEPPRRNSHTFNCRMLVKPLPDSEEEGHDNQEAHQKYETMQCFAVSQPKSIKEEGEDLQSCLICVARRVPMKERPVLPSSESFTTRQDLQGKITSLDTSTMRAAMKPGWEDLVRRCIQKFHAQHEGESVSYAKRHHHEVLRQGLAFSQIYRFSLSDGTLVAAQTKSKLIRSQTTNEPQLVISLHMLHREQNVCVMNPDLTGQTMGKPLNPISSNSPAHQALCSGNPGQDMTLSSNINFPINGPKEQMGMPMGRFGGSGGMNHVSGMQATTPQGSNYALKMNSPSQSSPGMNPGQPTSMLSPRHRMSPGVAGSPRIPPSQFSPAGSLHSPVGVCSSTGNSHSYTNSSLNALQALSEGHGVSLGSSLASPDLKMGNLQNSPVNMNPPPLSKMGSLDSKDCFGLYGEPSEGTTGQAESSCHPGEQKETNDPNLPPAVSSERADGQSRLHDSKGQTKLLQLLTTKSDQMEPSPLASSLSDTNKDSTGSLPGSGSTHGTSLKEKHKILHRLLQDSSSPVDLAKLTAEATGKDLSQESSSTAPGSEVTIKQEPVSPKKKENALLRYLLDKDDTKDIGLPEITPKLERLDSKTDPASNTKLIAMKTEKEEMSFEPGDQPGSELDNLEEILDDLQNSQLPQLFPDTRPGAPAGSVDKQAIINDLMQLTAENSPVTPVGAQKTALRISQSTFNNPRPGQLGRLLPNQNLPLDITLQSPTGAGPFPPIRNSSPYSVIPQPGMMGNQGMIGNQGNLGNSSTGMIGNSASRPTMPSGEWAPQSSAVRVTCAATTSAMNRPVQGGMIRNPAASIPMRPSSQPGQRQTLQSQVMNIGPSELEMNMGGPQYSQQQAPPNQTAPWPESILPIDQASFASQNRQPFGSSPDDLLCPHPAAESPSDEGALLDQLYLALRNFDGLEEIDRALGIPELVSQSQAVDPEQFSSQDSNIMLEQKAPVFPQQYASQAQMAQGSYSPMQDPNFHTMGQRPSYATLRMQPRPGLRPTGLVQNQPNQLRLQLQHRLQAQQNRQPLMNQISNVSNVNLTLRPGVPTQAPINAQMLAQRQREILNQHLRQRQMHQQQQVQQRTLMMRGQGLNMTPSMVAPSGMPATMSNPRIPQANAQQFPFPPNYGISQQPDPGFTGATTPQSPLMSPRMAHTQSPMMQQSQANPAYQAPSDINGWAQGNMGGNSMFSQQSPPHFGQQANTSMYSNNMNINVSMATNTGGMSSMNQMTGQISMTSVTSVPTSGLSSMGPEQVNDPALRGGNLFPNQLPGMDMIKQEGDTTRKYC
Chain of Neuropeptides B/W receptor type 1 (P48145 whole entry): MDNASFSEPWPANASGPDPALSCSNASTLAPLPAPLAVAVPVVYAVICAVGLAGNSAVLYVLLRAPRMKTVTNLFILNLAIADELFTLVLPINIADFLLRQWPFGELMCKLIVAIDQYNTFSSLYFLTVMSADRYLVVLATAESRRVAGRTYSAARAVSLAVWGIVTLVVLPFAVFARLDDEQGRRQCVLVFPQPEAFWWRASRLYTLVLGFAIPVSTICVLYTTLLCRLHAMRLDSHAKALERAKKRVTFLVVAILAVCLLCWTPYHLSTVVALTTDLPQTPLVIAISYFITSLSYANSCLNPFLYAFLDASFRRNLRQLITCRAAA

Structure (SMILES): CCN(CC)CCCN1C(=O)C(O)=C(C(=O)c2cc3ccccc3o2)C1c1ccccn1 (configuration not stated)
- EC50 [1]: 35.7 µM (not active)
- IC50 [2]: > 39.8 µM (not active)
- IC50 [3]: 4.13 µM (active)
- EC50 [4]: > 79.4 µM (not active)
- EC50 [5]: > 79.4 µM (inactive)

Structure (SMILES): CCOc1ccccc1NC(=O)C(NCC1(N2CCCCC2)CCCCC1)c1ccccc1 (configuration not stated)
- IC50 [6]: > 14.6 µM (not active)
- IC50 [7]: > 14.6 µM (not active)
- IC50 [8]: 139 µM (active)

Structure (SMILES): Cc1c(C(=O)O)[nH]c2ccc([N+](=O)[O-])cc12
- EC50 [9]: 6.64 µM (active)
- EC50 [10]: 6.99 µM (active)
- EC50 (HEK293 [11]): 6.29 µM (active)

Structure (SMILES): c1ccc(CCNc2nc(-c3ccccn3)nc3ccccc23)cc1
- EC50 (Streptococcus): 2.33 µM (active)
- AC50 (HEK293 [12]): 1.24 µM (active)
- IC50 [13]: 6.27 µM (active)
- AC50 (INS1): 1.63 µM (active)
- IC50 [14]: 1.96 µM (active)
- EC50 [15]: 0.916 µM (active)
- EC50 (BJ [16]): 51.1 µM (inconclusive)
- EC50 [17]: 15.9 µM (inconclusive)
- EC50 (BJ [18]): 3.18 µM (active)
- IC50 [19]: 1.77 µM (active)
- EC50 (BJ [20]): 28.9 µM (active)
- IC50 [21]: 49.3 µM (not active)
- AC50 [22]: 125 µM (active)
- IC50 [23]: 1.21 µM (active)

Structure (SMILES): Cc1ccn2cc(C(=O)Nc3nnc(C)s3)nc2c1
- EC50 [24]: > 50 µM (active)
- EC50 [25]: > 100 µM (not active)

Structure (SMILES): O=C(Nc1ccc(Cl)c(Cl)c1)Nc1nccs1
- EC50 (Streptococcus): 15.4 µM (active)
- EC50 [15]: 8.23 µM (active)
- EC50 (BJ [16]): 3.25 µM (inconclusive)
- EC50 [17]: 3.33 µM (active)
- EC50 (BJ [18]): 3.87 µM (active)
- EC50 (Wee1-like protein kinase): > 49.7 µM (not active)
- EC50 (Streptokinase A): > 150 µM (not active)
- EC50 [26]: > 49.7 µM (not active)
- EC50 (BJ [20]): 46.2 µM (active)

Structure (SMILES): COc1cccc2oc(-c3ccc(O)cc3)cc(=O)c12
- AC50 (Cytochrome P450 2D6): 15.8 µM (inconclusive)
